Experimental data from patent US20200289566A1, “COMPOSITIONS FOR IMPROVING CAR-T CELL FUNCTIONALITY AND USE THEREOF” (PROSPECT CHARTERCARE RWMC, LLC D/B/A ROGER WILLIAMS MEDICAL …, priority 2017, published 2020).

Key:
Assay type in all cases: cell-based, human
[1] = test system: IL13CAR-T cells; assay: CFSE dilution T cell proliferation assay; conditions: 72 hours
Experimental: Carboxyfluorescein succinimidyl ester (CFSE; 0.5 μg/ml; Invitrogen) was used to measure T cell proliferation by flow cytometry.
To further understand the mechanism, CAR-T cells were stained with CFSE and were cultured either unstimulated or treated with IL13Rα2-Fc±SB216763 for 72 hours. CFSE is a fluorescent cell staining dye and can be used to monitor lymphocyte proliferation, both in vitro and in vivo, due to the progressive halving of CFSE fluorescence within daughter cells following each cell division (Lyons et al., Journal of immunological methods 171: 131-137, 1994).

[2] = test system: IL13Rα2-Fc activated IL13CAR-T cells; assay: T cell survival assay (viability by flow cytometry, live-dead gating, 14 days); conditions: SB216763 20 μM, IL13Rα2-Fc 1 μg/ml, absence of added IL2
Experimental: (§1) Untransduced or IL13CAR-T cells (1×10^6) were activated with IL13Rα2-Fc chimera at specific concentrations in 24 well plates, with or without GSK3β inhibitor (SB216763, 20 μM; Sigma, St Louis, Mo.) or added IL2 in the culture medium. IL13CAR-T cell survival assays were performed as described above for 14 days. Long-time survival of IL13CAR-T cells following GSK3β inhibition was measured by flow cytometry using live-dead gating (Sengupta et al., Immunobiology 210: 647-659, 2005). Activated T cell death (ATCD) was measured by flow cytometric reading of FasL expression (FITC; Thermo-Fisher) on activated IL13CAR-T cells.
IL13CAR-T cells (32% CAR+) were cultured for 14 days in the presence of soluble IL13Rα2-Fc (1 μg/ml) and GSK3β inhibitor (SB216763; 20 μM) in RPMI1640 medium supplemented with 10% FBS and antibiotics, with or without added IL2. Cells were harvested at days 1, 4, 7, 10 and 14 and stained for CD3 and IL13CAR expression, and viability of cells were measured by flow cytometry and analyzed for viability as described earlier. […] The loss in viability was rescued by addition of IL2 in culture conditions (FIG. 1A; Top Panel; close squares) or inhibition of GSK3β with SB216763 in absence of added IL2 (FIG. 1A; Bottom Panel; open squares). […] To confirm this phenomenon FasL expression was measured in IL13Rα2-Fc treated CAR-T cells at day 14. […]

[3] = test system: IL13Rα2-Fc activated IL13CAR-T cells; assay: Activated T cell death (ATCD): flow cytometric FasL expression
Experimental: Purified rat anti-human IL13 antibody and allophycocyanin (APC)-conjugated anti-rat antibody was used to measure IL13CAR expression. Anti-human CD3-FITC was used in certain experiments for identifying T cells. For CD4:CD8 analysis of IL13CAR-T cells, anti-human CD4-FITC and anti-human CD8-PE.Cy7 were used in CAR-T cells that were positive for IL13CAR expression. FasL expression and PD-1 expression on activated IL13CAR-T cells was measured by staining with anti-human FasL-FITC (Thermo-Fisher) anti-human PD1-FITC respectively. […]
as §1, with “IL13CAR-T cell survival assays were performed as described above for 14 days.” left out
IL13CAR-T cells (32% CAR+) were cultured for 14 days in the presence of soluble IL13Rα2-Fc (1 μg/ml) and GSK3β inhibitor (SB216763; 20 μM) in RPMI1640 medium supplemented with 10% FBS and antibiotics, with or without added IL2. […] To confirm this phenomenon FasL expression was measured in IL13Rα2-Fc treated CAR-T cells at day 14. […]

[4] = test system: IL13Rα2-Fc activated IL13CAR-T cells; assay: T cell memory marker expression by flow cytometry; conditions: 7 days
Experimental: (§2) Purified rat anti-human IL13 antibody and allophycocyanin (APC)-conjugated anti-rat antibody was used to measure IL13CAR expression. Anti-human CD3-FITC was used in certain experiments for identifying T cells. For CD4:CD8 analysis of IL13CAR-T cells, anti-human CD4-FITC and anti-human CD8-PE.Cy7 were used in CAR-T cells that were positive for IL13CAR expression. FasL expression and PD-1 expression on activated IL13CAR-T cells was measured by staining with anti-human FasL-FITC (Thermo-Fisher) anti-human PD1-FITC respectively. Anti-human CD127-FITC, anti-human CD62L-PE, Anti-human CCR7-FITC anti-human CD45RO-PE and anti-human CD45RA-PE.Cy7 were used for flow cytometric measurement of T cell memory marker. Respective isotype controls or antibody controls (where applicable) were used to draw positive gates for each experiment. All antibodies were procured from either BD Biosciences or eBisociences. For intranuclear staining of β-catenin localization, nuclear permeabilization of CAR-T cells was achieved using FoxP3 staining buffer (eBioscience-Affymetrix, San Diego, Calif.) and staining with anti-human β-catenin rabbit mAb (Cell Signaling Technologies, Danvers Mass.) and anti-rabbit IgG conjugated with Alexa Fluor (AF) 488 or 647 (Cell Signaling Technologies).
Experiments were conducted to test the effects of SB216763 treatment on memory generation in IL13Rα2-Fc activated IL13CAR-T populations. IL13CAR-T cells were activated with increasing concentrations of IL13Rα2-Fc (0-1 μg/ml) in the presence or absence of SB216763 for 7 days. Cell surface expression of T cell memory markers were measured by flow cytometry. Since memory generation was monitored as a functional derivative of CD8+ T cells, experiments were conducted to additionally measure the intracellular expression of IL7R (CD127) expression as a marker of CD8+ memory CAR-T cell homeostasis.

[5] = test system: IL13Rα2-Fc activated IL13CAR-T cells; assay: qPCR of TBX21, PDCD1 and IFNG genes; conditions: normalized to GAPDH
Experimental: Total RNA was isolated from IL13CAR-T cells using the RNeasy Mini Kit according to the manufacturer's protocol (Qiagen). cDNA was prepared from RNA using iScript cDNA Synthesis Kit (Biorad, Carlsbad, Calif.). qPCR was performed targeting IFNG, TBX21, and PDCD1 genes using SyBR Green PCR master Mix (Applied Biosystems). CT values of target genes were normalized to that of housekeeping gene GAPDH, and relative gene expression was calculated using ΔΔCT method.
(§3) GSK3 inhibition reduces PD-1 mediated T cells exhaustion, which is dependent on T-bet expression (Taylor et al., Immunity 44: 274-286. 2016), and GSK3β pathway directly regulates T-bet expression in activated T cells (Verma et al., J Immunol 197: 108-118, 2016). Significant survival advantage of GSK3β inhibition in activated T cells prompted us to study T-bet and PD-1 expression in IL13Rα2-activated IL13CAR-T cells.

[6] = test system: IL13Rα2-Fc activated CAR-T cells; assay: Intranuclear β-catenin accumulation by flow cytometry; conditions: 36-48 hours
Experimental: as §2, with “For intranuclear staining of β-catenin localization, nuclear permeabilization of CAR-T cells was achieved using FoxP3 staining buffer (eBioscience-Affymetrix, San Diego, Calif.) and staining with anti-human β-catenin rabbit mAb (Cell Signaling Technologies, Danvers Mass.) and anti-rabbit IgG conjugated with Alexa Fluor (AF) 488 or 647 (Cell Signaling Technologies).” left out
Experiments were conducted to understand the molecular mechanism of GSK3β-inhibition on activated T cell expansion. […] IL13Rα2-Fc activated CAR-T cells were treated with or without SB216763 for 36-48 hours and measured for intra-nuclear accumulation of β-catenin by flow cytometry. […]

[7] = test system: IL13Rα2-activated IL13CAR-T cells; assay: Flow cytometry of T-bet and PD-1 expression
Experimental: as §2, §3

With Cn1cc(C2=C(c3ccc(Cl)cc3Cl)C(=O)NC2=O)c2ccccc21 [SB216763, 3-(2,4-Dichlorophenyl)-4-(1-methyl-1H-indol-3yl)-1H-pyrrole-2,5-dione] the “proliferation of IL13Rα2-Fc activated CAR-T cells” value [1] was “increased proliferation”, the “proliferation of unstimulated CAR-T cells” value [1] was “no such efforts” and the “loss in viability of activated IL13CAR-T cells” value [2] was “rescued”. For the same compound, the “frequency of activated CAR-T cells expressing FasL” value ([3]; day 14, SB216763 treated) was 25.3%, the “reduction of FasL expression” value ([3]; day 14, versus activated CAR-T cells not treated with the inhibitor) was 55% and the CCR7 expression [4] was “no difference”. For the same compound, the CD45RA expression [4] was “no difference”, the CD62L expression [4] was “complete inhibition” and the “increase in CD45RO” value ([4]; IL13Rα2-Fc 0-1 μg/ml) was 4 fold. For the same compound, the “increase in CD127” value ([4]; IL13Rα2-Fc 0-1 μg/ml) was 10 fold, the “decrease in PDCD1 (PD-1) gene expression” value [5] was 5 fold and the “increase in TBX21 (T-bet) gene expression” value [5] was 90 fold. The “nuclear β-catenin MFI” value ([6]; SB216763 treated) was 1618 MFI, the “increased accumulation of β-catenin in the nucleus” value ([6]; versus untreated activated CAR-T cells) was 66% and the “T-bet expression (FACS)” value ([7]; activated IL13CAR-T cells, GSK3β inhibition) was “significant upregulation”. The “frequency of PD-1+ IL13CAR-T cells” value ([7]; activated, GSK3β inhibited) was 17.3% and the “reduction in PD-1 expression” value ([7]; versus activated IL13CAR-T cells not treated) was 60%.
